biological target: bovine cathepsin B (Bos taurus, UniProt P07688); assay: Rate of hydrolysis of fluorescent dipeptide substrates incubated with bovine cathepsin B (release of 7-AMC); type: biochemical; conditions: incubation with bovine cathepsin B
Description: A convenient method was developed to identify suitable dipeptide units for the use in drug-linker intermediates. Cbz-protected dipeptides incorporated a fluorescent tag (7-amino-4-methylcouramin, 7-AMC) via a para-aminobenzyl carbonyl fragment were prepared by standard peptide chemistry as shown in Scheme 1. These dipeptide substrates were then incubated with bovine cathepsin B under a similar condition as described by Dubowchik (Biorg. Med. Chem. Lett. 1998, 8, 3341-3346). Rate of hydrolysis by bovine cathepsin B was measured by the release of 7-AMC (Table 1). Novel dipeptides with hydrolysis rates slower than the substrate A were rejected. The three dipeptide units in FS-9, FS-10 and FS-11 were selected as additional dipeptide units for drug-linker intermediate preparation.

SMILES | Rate of Hydrolysis [nmmol/min/mg]
Cc1cc(=O)oc2cc(NC(=O)OCc3ccc(NC(=O)C(CC4CCC(CN)CC4)NC(=O)[C@@H](NC(=O)OCc4ccccc4)C(C)C)cc3)ccc12 (stereo partly drawn) | 20.9
Cc1cc(=O)oc2cc(NC(=O)OCc3ccc(NC(=O)[C@H](CCCN4CCOCC4)NC(=O)[C@@H](NC(=O)OCc4ccccc4)C(C)C)cc3)ccc12 | 27.2
Cc1cc(=O)oc2cc(NC(=O)OCc3ccc(NC(=O)[C@H](CCCN4CCCCC4)NC(=O)[C@@H](NC(=O)OCc4ccccc4)C(C)C)cc3)ccc12 | 25.1
Cc1cc(=O)oc2cc(NC(=O)OCc3ccc(NC(=O)[C@H](CCCNC(N)=O)NC(=O)[C@@H](NC(=O)OCc4ccccc4)C(C)C)cc3)ccc12 [reference compound] | 2.67
CCOC(=O)N1CCC([C@H](NC(=O)OCc2ccccc2)C(=O)N[C@@H](CCCNC(N)=O)C(=O)Nc2ccc(COC(=O)Nc3ccc4c(C)cc(=O)oc4c3)cc2)CC1 | 0.63

Further lines, results first:

Rate of Hydrolysis [nmmol/min/mg] | SMILES
0 | Cc1cc(=O)oc2cc(NC(=O)OCc3ccc(NC(=O)[C@H](CCCNC(N)=O)NC(=O)[C@@H](NC(=O)OCc4ccccc4)C4CCS(=O)(=O)CC4)cc3)ccc12
0.84 | Cc1cc(=O)oc2cc(NC(=O)OCc3ccc(NC(=O)[C@H](CCCNC(N)=O)NC(=O)[C@@H](NC(=O)OCc4ccccc4)C4CCNCC4)cc3)ccc12
0 | Cc1cc(=O)oc2cc(NC(=O)OCc3ccc(NC(=O)[C@H](CCCNC(N)=O)NC(=O)[C@@H](NC(=O)OCc4ccccc4)C4CCCNC4)cc3)ccc12 (stereo partly drawn)
0 | Cc1cc(=O)oc2cc(NC(=O)OCc3ccc(NC(=O)[C@H](CCCNC(N)=O)NC(=O)[C@@H](NC(=O)OCc4ccccc4)C4CCSCC4)cc3)ccc12
0.55 | Cc1cc(=O)oc2cc(NC(=O)OCc3ccc(NC(=O)[C@H](CCCNC(N)=O)NC(=O)[C@@H](NC(=O)OCc4ccccc4)C4CC[S+]([O-])CC4)cc3)ccc12 (stereo partly drawn)
0.84 | Cc1cc(=O)oc2cc(NC(=O)OCc3ccc(NC(=O)[C@H](CCCNC(N)=O)NC(=O)[C@@H](NC(=O)OCc4ccccc4)C4CCOCC4)cc3)ccc12
0.59 | Cc1cc(=O)oc2cc(NC(=O)OCc3ccc(NC(=O)[C@H](CCCNC(N)=O)NC(=O)[C@@H](NC(=O)OCc4ccccc4)C4CCN(C)CC4)cc3)ccc12
